In patent US12459951B2, “Compounds that interact with RAS superfamily proteins for treatment of cancers, inflammatory diseases, rasopathies, and fibrotic disease” (SHY Therapeutics, LLC, priority 2022, dated 2025):

Legend:
Akt phosphorylation = assay: Akt Phosphorylation Assay (western blot), Panc-1; format: cell-based, human; details: at 10 μM, * = activation
Summary of the method: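 Phospho-Akt (Ser473) was measured by western blot in lysates of KRas G12D Panc-1 cells exposed to test compound for 6 h at 37 °C, either at 10 μM final with 0.3% DMSO or as serial dilutions for IC50. One format used overnight 0.5% FBS starvation followed by a 15 min pulse of 1.5 ng/ml EGF. The other used cells in 10% FBS with no stimulation.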

IL6 = assay: IL-6 Quantification Assay (ELISA), LPS-stimulated RAW 264.7; format: cell-based; parameters: inhibition: dose or concentration left out as unconfirmed; details: Mus musculus, RAW264.7; read-out: IL-6: % inh.
Erk1/2 phosphorylation = assay: Erk1/2 Phosphorylation Assay (western blot), Panc-1; format: cell-based, human; details: at 10 μM, * = activation
Summary of the method: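 Phospho-Erk1/2 (Thr202/Tyr204) was detected by western blot in lysates of Panc-1 cells (KRas G12D). These had 6 h, 37° C exposure to 10 μM compound or a dilution series for IC50, in 0.3% DMSO. Cells were either starved overnight in 0.5% FBS with a 15-min 1.5 ng/ml EGF pulse, or kept unstimulated in 10% FBS.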

COc1cc(Nc2nc(-c3ccccn3)nn3cc(-c4ccn(C(C)C)n4)c(C)c23)ncn1 [Compound 13, 6-(1-Isopropyl-1H-pyrazol-3-yl)-N-(6-methoxypyrimidin-4-yl)-5-methyl-2-(pyridin-2-yl)pyrrolo[2,1-f][1,2,4]triazin-4-amine]
% inh of Akt phosphorylation in Panc-1 (Akt phosphorylation): 0 (0% inhibition)
inhibition (IL6): 75 to 100%
% inh of Erk1/2 phosphorylation in Panc-1 (Erk1/2 phosphorylation): 0 (0% inhibition)

Cc1c(-c2ccn(C)n2)cn2nc(-c3nccn3C)nc(N)c12 [Compound 211, 5-Methyl-2-(1-methyl-1H-imidazol-2-yl)-6-(1-methyl-1H-pyrazol-3-yl)pyrrolo[2,1-f][1,2,4]triazin-4-amine]
% inh of Akt phosphorylation in Panc-1 (Akt phosphorylation): A (1-25% inhibition)
inhibition (IL6): 50 to 74%
% inh of Erk1/2 phosphorylation in Panc-1 (Erk1/2 phosphorylation): A* (1-25% activation)

COc1cccc(-c2cn3nc(-c4nccn4C)nc(N[C@H]4C[C@H](OC)C4)c3c2-c2ccccc2)c1OC [Compound 219, 6-(2,3-Dimethoxyphenyl)-N-((1r,3r)-3-methoxycyclobutyl)-2-(1-methyl-1H-imidazol-2-yl)-5-phenylpyrrolo[2,1-f][1,2,4]triazin-4-amine]
% inh of Akt phosphorylation in Panc-1 (Akt phosphorylation): D (85-100% inhibition)
inhibition (IL6): 75 to 100%
% inh of Erk1/2 phosphorylation in Panc-1 (Erk1/2 phosphorylation): D (85-100% inhibition)

COc1ccnc(Nc2nc(-c3nccn3C)nn3cc(-c4ccn(C)n4)c(C(=O)NCCN(C)C)c23)c1 [Compound 177, N-(2-(Dimethylamino)ethyl)-4-((4-methoxypyridin-2-yl)amino)-2-(1-methyl-1H-imidazol-2-yl)-6-(1-methyl-1H-pyrazol-3-yl)pyrrolo[2,1-f][1,2,4]triazine-5-carboxamide]
% inh of Akt phosphorylation in Panc-1 (Akt phosphorylation): A* (1-25% activation)
inhibition (IL6): 75 to 100%
% inh of Erk1/2 phosphorylation in Panc-1 (Erk1/2 phosphorylation): D* (85-100% activation)

COCCCNC(=O)c1c(-c2ccn(C)n2)cn2nc(-c3nccn3C)nc(N[C@H]3CC[C@H](OC)C3)c12 (racemic) [Compound 184, rac 4-(((1S,3S)-3-methoxycyclo-pentyl)amino)-N-(3-methoxypropyl)-2-(1-methyl-1H-imidazol-2-yl)-6-(1-methyl-1H-pyrazol-3-yl)pyrrolo[2,1-f][1,2,4]triazine-5-carboxamide]
% inh of Akt phosphorylation in Panc-1 (Akt phosphorylation): A* (1-25% activation)
inhibition (IL6): 25 to 49%
% inh of Erk1/2 phosphorylation in Panc-1 (Erk1/2 phosphorylation): A* (1-25% activation)

CO[C@H]1C[C@H](Nc2nc(-c3nccn3C)nn3cc(-c4cccnc4)c(-c4cccnc4)c23)C1 [Compound 171, N-((1r,3r)-3-Methoxycyclobutyl)-2-(1-methyl-1H-imidazol-2-yl)-5,6-di(pyridin-3-yl)pyrrolo[2,1-f][1,2,4]triazin-4-amine]
% inh of Akt phosphorylation in Panc-1 (Akt phosphorylation): B (26-49% inhibition)
inhibition (IL6): 0%
% inh of Erk1/2 phosphorylation in Panc-1 (Erk1/2 phosphorylation): B (26-49% inhibition)

Cc1c(-c2ccn(C)n2)cn2nc(-c3nccn3C)nc(Nc3cc(C(C)(C)O)ccn3)c12 [Compound 240, 2-(2-((5-Methyl-2-(1-methyl-1H-imidazol-2-yl)-6-(1-methyl-1H-pyrazol-3-yl)pyrrolo[2,1-f][1,2,4]triazin-4-yl)amino)pyridin-4-yl)propan-2-ol]
% inh of Akt phosphorylation in Panc-1 (Akt phosphorylation): D* (85-100% activation)
inhibition (IL6): 50 to 74%
% inh of Erk1/2 phosphorylation in Panc-1 (Erk1/2 phosphorylation): A* (1-25% activation)

COC[C@@H]1CC[C@@H]1CNc1nc(-c2ccccn2)nn2cc(-c3ccn(C(C)C)n3)c(C)c12 (racemic) [Compound 11, rac 6-(1-Isopropyl-1H-pyrazol-3-yl)-N-(((1S,2R)-2-(methoxymethyl)cyclobutyl)methyl)-5-methyl-2-(pyridin-2-yl)pyrrolo[2,1-f][1,2,4]triazin-4-amine]
% inh of Akt phosphorylation in Panc-1 (Akt phosphorylation): 0 (0% inhibition)
inhibition (IL6): 0%
% inh of Erk1/2 phosphorylation in Panc-1 (Erk1/2 phosphorylation): 0 (0% inhibition)
